Experiment [1] deals with Tyrosine-protein kinase ABL1 (Homo sapiens, UniProt P00519).
In experiment [2] the target is T1, Breakpoint cluster region protein (Homo sapiens, UniProt P11274).
T1 sequence (P11274 whole entry): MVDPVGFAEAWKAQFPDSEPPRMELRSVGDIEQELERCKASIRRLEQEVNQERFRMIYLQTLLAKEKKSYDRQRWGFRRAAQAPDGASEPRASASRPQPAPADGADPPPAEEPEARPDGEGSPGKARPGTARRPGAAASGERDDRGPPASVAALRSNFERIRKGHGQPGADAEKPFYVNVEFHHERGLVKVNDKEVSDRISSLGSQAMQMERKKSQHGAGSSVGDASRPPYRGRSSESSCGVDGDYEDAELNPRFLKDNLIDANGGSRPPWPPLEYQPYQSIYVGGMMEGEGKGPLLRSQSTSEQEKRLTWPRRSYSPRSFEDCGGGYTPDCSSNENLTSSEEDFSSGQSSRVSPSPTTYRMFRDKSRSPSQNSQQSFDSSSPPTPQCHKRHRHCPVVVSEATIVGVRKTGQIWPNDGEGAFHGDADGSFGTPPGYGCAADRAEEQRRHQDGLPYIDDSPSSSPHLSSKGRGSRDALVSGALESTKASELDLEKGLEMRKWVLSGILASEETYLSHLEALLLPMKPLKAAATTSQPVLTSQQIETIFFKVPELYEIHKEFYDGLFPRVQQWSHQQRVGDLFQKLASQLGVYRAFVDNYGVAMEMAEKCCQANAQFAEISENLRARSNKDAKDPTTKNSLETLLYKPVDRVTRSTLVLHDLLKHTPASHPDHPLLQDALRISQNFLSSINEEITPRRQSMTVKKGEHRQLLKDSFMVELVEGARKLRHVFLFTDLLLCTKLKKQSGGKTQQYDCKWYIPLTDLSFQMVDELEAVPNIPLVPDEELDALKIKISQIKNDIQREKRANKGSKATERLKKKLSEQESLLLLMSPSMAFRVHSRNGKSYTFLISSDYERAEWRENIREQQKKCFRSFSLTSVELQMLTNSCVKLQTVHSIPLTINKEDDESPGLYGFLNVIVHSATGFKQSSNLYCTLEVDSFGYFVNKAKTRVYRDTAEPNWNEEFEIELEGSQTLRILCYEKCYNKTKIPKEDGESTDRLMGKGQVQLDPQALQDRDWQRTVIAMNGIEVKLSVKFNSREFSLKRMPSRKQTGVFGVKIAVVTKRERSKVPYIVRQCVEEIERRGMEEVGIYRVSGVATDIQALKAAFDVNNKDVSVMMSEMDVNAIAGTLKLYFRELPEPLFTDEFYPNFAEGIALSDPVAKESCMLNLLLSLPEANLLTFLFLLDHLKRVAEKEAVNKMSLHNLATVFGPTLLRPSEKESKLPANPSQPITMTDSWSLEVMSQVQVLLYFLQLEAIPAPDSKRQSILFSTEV

Experiment [3] addresses Tyrosine-protein kinase BTK (Homo sapiens, UniProt Q06187).
Experiment [4] concerns the target Myosin light chain kinase, smooth muscle (Homo sapiens, UniProt Q15746).
The target of experiment [5] is T2, Phosphorylase b kinase gamma catalytic chain, liver/testis isoform (Homo sapiens, UniProt P15735).
T2 sequence (P15735 whole entry): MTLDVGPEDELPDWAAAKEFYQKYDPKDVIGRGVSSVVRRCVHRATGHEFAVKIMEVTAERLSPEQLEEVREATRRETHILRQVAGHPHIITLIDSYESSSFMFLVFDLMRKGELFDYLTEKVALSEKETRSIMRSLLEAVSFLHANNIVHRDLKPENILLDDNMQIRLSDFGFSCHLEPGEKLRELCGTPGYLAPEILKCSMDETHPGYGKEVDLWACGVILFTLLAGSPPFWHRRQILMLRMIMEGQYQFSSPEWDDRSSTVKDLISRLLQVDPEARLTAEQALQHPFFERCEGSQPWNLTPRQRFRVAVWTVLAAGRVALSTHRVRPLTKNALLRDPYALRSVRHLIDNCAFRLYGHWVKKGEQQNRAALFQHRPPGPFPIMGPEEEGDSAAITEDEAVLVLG

Experiment [6] concerns the target U5 small nuclear ribonucleoprotein 200 kDa helicase (Homo sapiens, UniProt O75643).
Experiment [7] concerns the target T3, Succinate--CoA ligase [ADP-forming] subunit beta, mitochondrial (Homo sapiens, UniProt Q9P2R7).
T3 sequence (Q9P2R7 whole entry): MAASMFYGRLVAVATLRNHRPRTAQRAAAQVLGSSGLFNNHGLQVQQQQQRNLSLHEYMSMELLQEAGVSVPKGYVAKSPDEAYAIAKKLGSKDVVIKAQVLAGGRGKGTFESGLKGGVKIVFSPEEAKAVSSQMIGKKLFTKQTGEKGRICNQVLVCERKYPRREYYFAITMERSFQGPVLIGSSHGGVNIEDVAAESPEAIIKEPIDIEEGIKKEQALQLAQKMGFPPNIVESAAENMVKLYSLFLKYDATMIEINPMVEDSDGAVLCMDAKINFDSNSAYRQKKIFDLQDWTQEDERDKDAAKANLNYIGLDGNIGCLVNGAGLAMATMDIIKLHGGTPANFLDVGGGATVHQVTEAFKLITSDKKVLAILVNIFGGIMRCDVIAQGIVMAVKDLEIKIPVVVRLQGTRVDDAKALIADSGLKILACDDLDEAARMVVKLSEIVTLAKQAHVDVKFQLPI

Active and inactive are the calls of the source. Cut-off read from the data, not from the text of the source, for most assays here: actives have a measured Kd and inactives only a lower limit.
Note: in the data inactive means no Kd found up to 30 µM.

Chain of Tyrosine-protein kinase BTK (Q06187 whole entry): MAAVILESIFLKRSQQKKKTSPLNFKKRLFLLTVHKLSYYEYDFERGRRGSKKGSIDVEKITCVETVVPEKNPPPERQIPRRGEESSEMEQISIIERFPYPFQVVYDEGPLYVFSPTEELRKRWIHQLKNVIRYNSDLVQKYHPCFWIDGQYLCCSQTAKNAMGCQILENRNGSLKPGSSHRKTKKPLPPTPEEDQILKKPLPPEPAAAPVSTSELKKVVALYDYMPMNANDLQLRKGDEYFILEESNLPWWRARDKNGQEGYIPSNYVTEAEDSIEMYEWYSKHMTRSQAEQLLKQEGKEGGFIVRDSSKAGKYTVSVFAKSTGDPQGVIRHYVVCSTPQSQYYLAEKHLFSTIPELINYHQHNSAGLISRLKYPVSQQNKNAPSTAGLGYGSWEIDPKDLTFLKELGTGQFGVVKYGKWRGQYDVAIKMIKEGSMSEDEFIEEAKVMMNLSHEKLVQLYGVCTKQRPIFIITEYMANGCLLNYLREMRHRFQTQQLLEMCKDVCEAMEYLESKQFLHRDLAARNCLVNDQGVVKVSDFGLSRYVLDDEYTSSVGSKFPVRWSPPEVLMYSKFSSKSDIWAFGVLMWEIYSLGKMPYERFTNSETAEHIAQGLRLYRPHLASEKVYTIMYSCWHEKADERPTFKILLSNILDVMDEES
Chain of U5 small nuclear ribonucleoprotein 200 kDa helicase (O75643 whole entry): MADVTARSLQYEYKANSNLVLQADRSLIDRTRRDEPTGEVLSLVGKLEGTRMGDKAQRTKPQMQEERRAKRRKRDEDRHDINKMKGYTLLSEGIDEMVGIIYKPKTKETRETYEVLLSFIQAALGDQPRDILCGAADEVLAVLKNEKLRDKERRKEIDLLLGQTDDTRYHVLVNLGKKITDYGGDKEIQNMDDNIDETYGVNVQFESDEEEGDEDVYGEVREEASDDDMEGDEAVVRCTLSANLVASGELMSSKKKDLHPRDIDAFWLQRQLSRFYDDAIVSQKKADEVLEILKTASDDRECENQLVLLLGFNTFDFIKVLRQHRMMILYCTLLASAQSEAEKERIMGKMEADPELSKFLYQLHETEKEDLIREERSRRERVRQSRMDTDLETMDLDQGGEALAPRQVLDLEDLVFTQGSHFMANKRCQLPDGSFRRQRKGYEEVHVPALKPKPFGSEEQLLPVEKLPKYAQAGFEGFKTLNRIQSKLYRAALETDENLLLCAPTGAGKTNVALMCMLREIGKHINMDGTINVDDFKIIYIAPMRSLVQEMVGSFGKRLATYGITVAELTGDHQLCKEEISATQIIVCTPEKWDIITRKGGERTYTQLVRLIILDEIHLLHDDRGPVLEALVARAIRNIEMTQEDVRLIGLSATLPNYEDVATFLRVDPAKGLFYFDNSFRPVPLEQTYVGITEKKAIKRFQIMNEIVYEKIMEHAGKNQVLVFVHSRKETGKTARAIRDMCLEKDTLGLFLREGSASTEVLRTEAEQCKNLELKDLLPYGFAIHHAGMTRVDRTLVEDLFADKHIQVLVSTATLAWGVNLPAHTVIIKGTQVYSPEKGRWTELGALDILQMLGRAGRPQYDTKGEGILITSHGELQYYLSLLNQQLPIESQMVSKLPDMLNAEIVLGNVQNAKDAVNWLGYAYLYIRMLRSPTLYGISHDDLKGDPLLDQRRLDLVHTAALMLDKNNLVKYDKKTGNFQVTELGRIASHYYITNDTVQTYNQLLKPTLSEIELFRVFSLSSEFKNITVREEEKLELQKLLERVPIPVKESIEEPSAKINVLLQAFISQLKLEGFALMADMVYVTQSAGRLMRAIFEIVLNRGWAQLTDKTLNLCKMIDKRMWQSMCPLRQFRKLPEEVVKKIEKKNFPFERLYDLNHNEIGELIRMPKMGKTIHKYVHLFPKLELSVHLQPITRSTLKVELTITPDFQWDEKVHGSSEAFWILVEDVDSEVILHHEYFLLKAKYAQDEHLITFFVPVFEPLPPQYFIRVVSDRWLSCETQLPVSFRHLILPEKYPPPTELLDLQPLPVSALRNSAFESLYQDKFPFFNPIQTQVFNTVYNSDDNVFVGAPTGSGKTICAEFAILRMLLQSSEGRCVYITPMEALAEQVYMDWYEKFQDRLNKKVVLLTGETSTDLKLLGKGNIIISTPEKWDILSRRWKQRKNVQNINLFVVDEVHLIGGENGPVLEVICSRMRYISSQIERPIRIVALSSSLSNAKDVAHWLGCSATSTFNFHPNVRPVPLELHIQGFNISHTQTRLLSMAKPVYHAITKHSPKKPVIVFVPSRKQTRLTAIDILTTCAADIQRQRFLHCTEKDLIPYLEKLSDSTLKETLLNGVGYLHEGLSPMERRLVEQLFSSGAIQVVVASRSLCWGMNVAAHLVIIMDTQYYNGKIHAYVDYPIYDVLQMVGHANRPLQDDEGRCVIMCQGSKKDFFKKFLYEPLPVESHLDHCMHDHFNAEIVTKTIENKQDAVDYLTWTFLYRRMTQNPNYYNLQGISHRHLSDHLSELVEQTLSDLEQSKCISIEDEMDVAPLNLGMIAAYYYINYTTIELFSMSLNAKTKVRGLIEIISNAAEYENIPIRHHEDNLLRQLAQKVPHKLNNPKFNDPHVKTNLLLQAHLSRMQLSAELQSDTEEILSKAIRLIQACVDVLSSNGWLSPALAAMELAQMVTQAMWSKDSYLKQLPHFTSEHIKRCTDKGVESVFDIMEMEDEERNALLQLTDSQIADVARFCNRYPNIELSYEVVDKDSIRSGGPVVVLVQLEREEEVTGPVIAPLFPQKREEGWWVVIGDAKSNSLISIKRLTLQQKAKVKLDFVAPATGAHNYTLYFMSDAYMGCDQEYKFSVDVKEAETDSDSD
Chain of Myosin light chain kinase, smooth muscle (Q15746 whole entry, canonical isoform): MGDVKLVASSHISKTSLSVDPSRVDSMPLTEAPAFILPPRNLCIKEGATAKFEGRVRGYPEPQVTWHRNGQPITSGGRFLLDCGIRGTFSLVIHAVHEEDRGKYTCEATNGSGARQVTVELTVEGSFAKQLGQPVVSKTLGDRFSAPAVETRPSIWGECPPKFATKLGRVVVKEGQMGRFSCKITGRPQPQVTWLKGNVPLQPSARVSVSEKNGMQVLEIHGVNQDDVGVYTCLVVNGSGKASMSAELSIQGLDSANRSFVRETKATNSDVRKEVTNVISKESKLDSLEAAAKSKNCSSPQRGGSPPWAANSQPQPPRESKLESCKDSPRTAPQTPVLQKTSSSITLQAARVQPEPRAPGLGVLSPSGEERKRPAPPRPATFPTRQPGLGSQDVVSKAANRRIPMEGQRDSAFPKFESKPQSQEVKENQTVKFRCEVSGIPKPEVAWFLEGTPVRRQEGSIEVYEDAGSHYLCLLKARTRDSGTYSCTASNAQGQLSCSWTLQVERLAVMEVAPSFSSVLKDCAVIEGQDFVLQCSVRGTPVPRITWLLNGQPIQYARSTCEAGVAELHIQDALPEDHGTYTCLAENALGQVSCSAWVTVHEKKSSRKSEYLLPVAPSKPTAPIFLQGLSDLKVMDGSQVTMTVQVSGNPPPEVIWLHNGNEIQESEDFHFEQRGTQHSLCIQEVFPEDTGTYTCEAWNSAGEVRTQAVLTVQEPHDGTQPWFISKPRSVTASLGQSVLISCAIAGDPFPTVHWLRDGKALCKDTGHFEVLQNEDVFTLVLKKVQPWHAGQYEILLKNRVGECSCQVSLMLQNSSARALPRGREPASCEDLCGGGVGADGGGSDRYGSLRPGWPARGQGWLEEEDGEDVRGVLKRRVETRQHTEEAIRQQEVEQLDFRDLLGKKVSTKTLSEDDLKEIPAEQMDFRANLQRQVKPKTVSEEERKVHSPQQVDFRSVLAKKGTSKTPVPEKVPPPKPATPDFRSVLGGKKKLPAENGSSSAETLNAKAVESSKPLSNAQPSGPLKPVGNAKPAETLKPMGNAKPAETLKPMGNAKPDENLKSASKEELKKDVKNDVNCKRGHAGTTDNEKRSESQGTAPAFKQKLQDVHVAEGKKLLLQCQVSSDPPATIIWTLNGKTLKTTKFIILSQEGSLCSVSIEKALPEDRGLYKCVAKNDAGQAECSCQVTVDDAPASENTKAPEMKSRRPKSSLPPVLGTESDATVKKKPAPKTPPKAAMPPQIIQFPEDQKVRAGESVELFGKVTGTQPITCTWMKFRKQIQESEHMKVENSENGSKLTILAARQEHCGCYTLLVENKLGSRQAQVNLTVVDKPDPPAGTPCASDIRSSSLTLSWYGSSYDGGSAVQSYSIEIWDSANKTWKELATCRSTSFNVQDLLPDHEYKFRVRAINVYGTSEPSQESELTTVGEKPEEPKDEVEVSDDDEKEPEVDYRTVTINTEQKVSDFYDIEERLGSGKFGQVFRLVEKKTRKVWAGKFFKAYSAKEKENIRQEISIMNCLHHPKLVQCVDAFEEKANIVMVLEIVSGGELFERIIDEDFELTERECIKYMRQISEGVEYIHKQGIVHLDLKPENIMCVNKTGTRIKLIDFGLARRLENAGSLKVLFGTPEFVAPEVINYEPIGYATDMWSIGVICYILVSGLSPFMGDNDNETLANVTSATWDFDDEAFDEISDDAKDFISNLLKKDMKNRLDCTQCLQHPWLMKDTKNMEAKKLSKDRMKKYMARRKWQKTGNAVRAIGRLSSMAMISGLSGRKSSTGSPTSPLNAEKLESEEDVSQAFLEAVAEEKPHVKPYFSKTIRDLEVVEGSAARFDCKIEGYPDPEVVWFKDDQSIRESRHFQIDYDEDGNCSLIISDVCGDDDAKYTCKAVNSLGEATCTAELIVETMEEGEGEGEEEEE

For `Cc1cc([C@@H](C)Nc2ccccc2C(=O)O)c2nc(N3CCOCC3)cc(=O)n2c1` [AZD-6482], the Kd in experiment [1], in experiment [2], in experiment [3], in experiment [4], in experiment [5] and in experiment [6] was > 30 µM (inactive) in each case. Also, in experiment [7], the Kd (usually the concentration at which binding is half-saturated) was > 30 µM (inactive).
On to `CCN1CCN(Cc2ccc(-c3cc4c(N[C@H](C)c5ccccc5)ncnc4[nH]3)cc2)CC1` [AEE-788], for which the Kd in experiment [1] is 1.09 µM (active); in experiment [2], 0.495 µM (active); in experiment [3], > 30 µM (inactive); in experiment [4], > 30 µM (inactive); in experiment [5] it was > 30 µM (inactive); in experiment [6], > 30 µM (inactive). The Kd in experiment [7] was > 30 µM (inactive).
In the case of `CN1N=C(N)c2cn([C@@H]3O[C@H](COP(=O)(O)O)[C@@H](O)[C@H]3O)c3ncnc1c23` [TRICIRIBINE PHOSPHATE], the Kd in experiment [1], in experiment [2], in experiment [3], in experiment [4], in experiment [5] and in experiment [6] was > 30 µM (inactive) in each case. For the same compound, the Kd in experiment [7] is > 30 µM (inactive).
For `CC(=O)Nc1cccc(-n2c(=O)n(C3CC3)c(=O)c3c(Nc4ccc(I)cc4F)n(C)c(=O)c(C)c32)c1` [TRAMETINIB], the Kd in experiment [1], in experiment [2], in experiment [3], in experiment [4], in experiment [5] and in experiment [6] was > 30 µM (inactive) throughout. Further, in experiment [7], the Kd is > 30 µM (inactive).
Turning to `COCCNCc1ccc(-c2cc3nccc(Oc4ccc(NC(=S)NC(=O)Cc5ccc(F)cc5)cc4F)c3s2)nc1` [GLESATINIB], the Kd is 0.241 µM (active) in experiment [1]; 0.858 µM (active) in experiment [2]; > 30 µM (inactive) in experiment [3]; > 30 µM (inactive) in experiment [4]; > 30 µM (inactive) in experiment [5]; > 30 µM (inactive) in experiment [6]. In experiment [7], the Kd was > 30 µM (inactive).
`CNS(=O)(=O)Nc1nccc(Cc2c(C)c3ccc(Oc4ncccn4)cc3oc2=O)c1F` [AVUTOMETINIB]: the Kd in experiment [1], in experiment [2], in experiment [3], in experiment [4], in experiment [5] and in experiment [6] was > 30 µM (inactive) throughout. In addition, the Kd in experiment [7] is > 30 µM (inactive).

(Values after ChEMBL document CHEMBL3991601, “The target landscape of clinical kinase drugs” (Science, 2017).)
